Source: patent publication US9648872B2, “Water dispersible granule composition” (priority 2014, dated 2017)
In brackets after ≈: the same amount, converted by molar mass.

Tests used:
[1] = cited from earlier work
[2] = Solubility of active ingredient; format: physicochemical
From the text: Formulations of water dispersible granules comprising microcapsules encapsulating active ingredients with higher water solubilities: • a. […] When attempting to prepare water dispersible granules comprising microcapsules of Thiamethoxam as per an embodiment of this invention, it was observed that Thiamethoxam was not soluble in the solvent C-9. It is observed that thiamethoxam decomposed immediately beyond its melting point. On attempting to add methylene diphenyl diisocyanate (MDI) in molten Thiamethoxam, it polymerized immediately due to high temperature. Thus Thiamethoxam could not be microencapsulated and it was not possible to prepare its water dispersible granular formulation. • b. […] A water dispersible granular composition comprising microcapsules of 25% Propoxur within a polyurea shell wall with Gohensol GL-03 was made, according to an embodiment of the invention, including maltodextrin as a water soluble suspension adjuvant in the filler base, along with clay, sodium lignosulfonate and alkyl naphthalene sulfonate (Supragil WP). The suspensibility observed was 85%. A water dispersible granule composition comprising microcapsules of 25% Propoxur was prepared with the microcapsules having a polyurea shell wall and polyvinyl alcohol Gohensol GL-03. […]

CNC(=O)Oc1ccccc1OC(C)C [Propoxur]
solubility in water [1]: 1800 µg/mL (≈ 8.6 mM)

CN1COCN(Cc2cnc(Cl)s2)/C1=N\[N+](=O)[O-] [Thiamethoxam]
solubility in the solvent C-9 [2]: not soluble
